From ChEMBL document CHEMBL1201862, “PubChem BioAssay data set” (2004)
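Step 1: Grow cells in 96-well plates. Step 2: Expose to compound for 48 hours at 5 concentrations. Step 3: Interpolate endpoints linearly; if unreached, use highest concentration. GI50 marks 50% less growth.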 The source made the active and inactive calls. No stated cut-off is given here; in the data, active = GI50 up to about 1.1 µM and inactive = higher.

Experiments:
Experiment in all cases: growth of human tumour cells (NCI), 48 h
[1] = system: COLO 205
[2] = system: HOP-92
[3] = system: HCC 2998
[4] = system: A549
[5] = system: OVCAR-4
[6] = system: TK-10
[7] = system: K562
[8] = system: KM12
[9] = system: IGROV-1
[10] = system: SK-MEL-28
[11] = system: SN12C
[12] = system: SW-620
[13] = system: SNB-19
[14] = system: SNB-75
[15] = system: LOX IMVI
[16] = system: MOLT-4
[17] = system: RXF 393
[18] = system: M14
[19] = system: UACC-257
[20] = system: HL-60

Measured: GI50

O=C=C=P(c1ccccc1)(c1ccccc1)c1ccccc1
inactive: [1] 23.7 µM | [2] 16.1 µM | [3] 61.5 µM | [4] 40.6 µM | [5] 61.2 µM | [6] 3.46 µM | [7] 27 µM | [8] 48.9 µM | [9] 41.9 µM | [10] > 100 µM | [11] > 100 µM | [12] > 100 µM | [13] > 100 µM | [14] 23.5 µM | [15] 40.1 µM | [16] 55.8 µM | [17] 92.5 µM | [18] 80.5 µM | [19] 27.8 µM | [20] 11.1 µM

COC(=O)C1C(C)N1C (stereo not given)
inactive: [1] > 100 µM | [2] > 100 µM | [3] > 100 µM | [4] > 100 µM | [5] > 100 µM | [6] > 100 µM | [7] > 100 µM | [8] > 100 µM | [9] > 100 µM | [10] > 100 µM | [11] > 100 µM | [12] > 100 µM | [13] > 100 µM | [14] > 100 µM | [15] > 100 µM | [16] > 100 µM | [17] > 100 µM | [18] > 100 µM | [19] > 100 µM | [20] > 100 µM

CCOC(=O)NC(Nc1ncccn1)(C(=O)OCC)C(F)(F)F (stereo not given)
inactive: [1] > 100 µM | [2] > 100 µM | [3] > 100 µM | [4] > 100 µM | [5] > 100 µM | [6] > 100 µM | [7] > 100 µM | [8] > 100 µM | [9] > 100 µM | [10] > 100 µM | [11] > 100 µM | [12] > 100 µM | [13] > 100 µM | [14] > 100 µM | [15] > 100 µM | [16] > 100 µM | [17] > 100 µM | [18] > 100 µM | [19] > 100 µM | [20] > 100 µM
